By MIC is commonly meant the smallest concentration in the dilution series that meets the test's criterion for growth inhibition. Low values mean inhibition by little substance, high ones a need for much substance.

We go through 14 compounds from DBAASP.

Converted amounts (≈) assume the structure as drawn. “And” between values parts separate entries of the source, which are not always exact repeats. Equal values may be shown once.

Common to all, as to experiment: ≥ marks a high value that may be exact or a test limit, other limits are often not marked, values filed in µg/mL are converted to µM
In experiment [1] the test system is Staphylococcus aureus ATCC 25923.
For experiment [2], the system named is Pseudomonas aeruginosa ATCC 27853.
Experiment [3] concerns Pseudomonas aeruginosa PAO1.
Experiment [4] concerns Staphylococcus aureus ATCC 43300.
Experiment [5] has as its system Staphylococcus aureus ATCC 6538.
Experiment [6] deals with Pseudomonas aeruginosa ATCC 9027.
For experiment [7], the system named is Candida albicans ATCC 2002.
Experiment [8] has as its system Bacillus subtilis.
Experiment [9] deals with Escherichia coli ATCC 25922.
For experiment [10], the system named is Escherichia coli.
Experiment [11] concerns Staphylococcus aureus ATCC 29213.
The subject of experiment [12] is Candida albicans ATCC 90028.

Regarding `CC[C@H](C)[C@H](NC(=O)[C@H](CCCCN)NC(=O)[C@H](Cc1cnc[nH]1)NC(=O)[C@H](CC(N)=O)NC(=O)[C@H](Cc1c[nH]c2ccccc12)NC(=O)CNC(=O)[C@H](C)NC(=O)[C@H](CO)NC(=O)[C@@H](NC(=O)[C@@H](NC(=O)[C@@H](N)CS)C(C)C)[C@@H](C)CC)C(=O)N[C@@H](CCCN=C(N)N)C(=O)N[C@H]1CSSC[C@@H](C(=O)O)NC(=O)[C@H](CC(N)=O)NC(=O)CNC(=O)[C@H]([C@@H](C)O)NC(=O)[C@H](CC(C)C)NC(=O)[C@H](CCCCN)NC1=O` [CVISAGWNHKIRCKLTGNC], the MIC in experiment [1] was 23.8 µM (≈ 50 µg/mL); in experiment [2] it was 11.9 µM (≈ 25 µg/mL); in experiment [3], 11.9 µM (≈ 25 µg/mL); in [4], 23.8 µM (≈ 50 µg/mL).

Take `CC(C)C[C@H](NC(=O)[C@H](C)NC(=O)[C@H](CCCCN)NC(=O)[C@H](CCCCN)NC(=O)[C@H](CC(C)C)NC(=O)[C@H](Cc1ccccc1)NC(=O)[C@H](CCCCN)NC(=O)[C@H](C)NC(=O)[C@H](CC(C)C)NC(=O)[C@H](Cc1ccccc1)NC(=O)[C@H](CCCCN)NC(=O)[C@H](C)NC(=O)[C@@H](N)Cc1ccccc1)C(N)=O` [FAKFLAKFLKKAL]: the minimal inhibitory concentration (MIC) in experiment [5] came out at 3.28 µM (≈ 5 µg/mL); in [6], 65.6 µM (≈ 99.9 µg/mL).

With `CC[C@H](C)[C@H](NC(=O)[C@H](CC(C)C)NC(=O)[C@H](CCCCN)NC(=O)[C@H](CCCCN)NC(=O)[C@H](C)NC(=O)[C@H](CC(C)C)NC(=O)[C@H](CCCCN)NC(=O)[C@H](CCCCN)NC(=O)[C@H](CC(C)C)NC(=O)[C@H](CCCCN)NC(=O)[C@H](CCCCN)NC(=O)[C@H](C)NC(=O)[C@H](CC(C)C)NC(=O)[C@H](CCCCN)NC(=O)[C@H](CCCCN)NC(=O)[C@H](C)NC(=O)[C@@H](N)Cc1ccccc1)C(=O)NCC(=O)N[C@@H](C)C(=O)N[C@H](C(=O)N[C@@H](CC(C)C)C(=O)N[C@@H](CCCCN)C(=O)N[C@H](C(=O)O)C(C)C)C(C)C` [FAKKLAKKLKKLAKKLIGAVLKV], the minimal inhibitory concentration (MIC) is 39.4 µM (≈ 100 µg/mL) in experiment [5] and more than 78.8 µM in experiment [6].

Turning to `CC(C)C[C@H](NC(=O)[C@H](C)NC(=O)[C@H](CCCCN)NC(=O)[C@H](CCCCN)NC(=O)[C@H](CC(C)C)NC(=O)[C@H](C)NC(=O)[C@H](CCCCN)NC(=O)[C@H](C)NC(=O)[C@H](CC(C)C)NC(=O)[C@H](CC(C)C)NC(=O)[C@H](CCCCN)NC(=O)[C@H](C)NC(=O)[C@@H](N)Cc1ccccc1)C(N)=O` [FAKLLAKALKKAL], the values for the minimal inhibitory concentration (MIC) in [5] and in [6] were 3.53 µM (≈ 5 µg/mL) and 7.07 µM (≈ 9.99 µg/mL), respectively.

In the case of `CC[C@H](C)[C@H](NC(=O)CNC(=O)[C@H](C)NC(=O)[C@H](C)NC(=O)[C@@H](NC(=O)[C@H](CCCCN)NC(=O)[C@H](CC(C)C)NC(=O)[C@@H](NC(=O)[C@@H]1CCCN1C(=O)CNC(=O)[C@@H](NC(=O)[C@@H](N)Cc1ccccc1)C(C)C)C(C)C)[C@@H](C)CC)C(=O)N[C@@H](CC(C)C)C(=O)N1CCC[C@H]1C(=O)N[C@H](C(=O)N[C@@H](C)C(=O)N[C@H](C(=O)N[C@H]1CSSC[C@@H](C(=O)O)NC(=O)[C@H](CCCCN)NC(=O)[C@H](CCCCN)NC(=O)[C@H](Cc2ccc(O)cc2)NC(=O)[C@H]([C@@H](C)CC)NC(=O)[C@H](CCCCN)NC1=O)[C@@H](C)CC)[C@@H](C)O` [FVGPVLKIAAGILPTAICKIYKKC], the MIC in [1] was found to be 0.459 µM (≈ 1.17 µg/mL); in [7], 0.919 µM (≈ 2.34 µg/mL); in [8], 0.919 µM (≈ 2.34 µg/mL); in experiment [4] it was 3.68 µM (≈ 9.37 µg/mL).

For `CC(C)C[C@H](NC(=O)CN)C(=O)N[C@@H](CC(C)C)C(=O)N[C@@H](CC(=O)O)C(=O)N[C@@H](CC(C)C)C(=O)N[C@@H](CC(C)C)C(=O)N[C@@H](CCCCN)C(=O)N[C@@H](CC(C)C)C(=O)N[C@@H](CC(C)C)C(=O)N[C@@H](CC(C)C)C(=O)N[C@@H](CCCCN)C(=O)N[C@@H](C)C(=O)N[C@@H](C)C(=O)NCC(=O)O` [GLLDLLKLLLKAAG], the minimal inhibitory concentration (MIC) in [1] turned out to be 10 µM (≈ 14.4 µg/mL); in [9], 35 µM (≈ 50.3 µg/mL); in experiment [3], 66 µM (≈ 94.9 µg/mL).

`CC[C@H](C)[C@H](N)C(=O)N[C@@H](CC(N)=O)C(=O)N[C@@H](Cc1c[nH]c2ccccc12)C(=O)N[C@@H](CC(C)C)C(=O)N[C@@H](CCCN=C(N)N)C(=O)N[C@@H](CC(C)C)C(=O)NCC(=O)N[C@@H](CCCN=C(N)N)C(=O)N[C@@H](CCCN=C(N)N)C(=O)N[C@H](C(=O)N[C@@H](CC(C)C)C(=O)NCC(=O)N[C@@H](C)C(=O)N[C@@H](CC(C)C)C(N)=O)[C@@H](C)CC` [INWLRLGRRILGAL]: the MIC in experiment [8] is 17.5 µM (≈ 28.9 µg/mL); in experiment [10], more than 100 µM.

`CC[C@H](C)[C@H](NC(=O)[C@H](CCCN=C(N)N)NC(=O)[C@@H](N)CCCCN)C(=O)N[C@@H](C)C(=O)N[C@@H](CCC(N)=O)C(=O)N[C@@H](CCCN=C(N)N)C(=O)N[C@H](C(=O)N[C@@H](CCCCN)C(=O)N[C@@H](CC(=O)O)C(=O)N[C@@H](Cc1ccccc1)C(=O)N[C@@H](CC(C)C)C(=O)N[C@@H](CCCN=C(N)N)C(=O)O)[C@@H](C)CC` [KRIAQRIKDFLR]: the MIC in experiment [9] was 3.24 µM (≈ 5 µg/mL); in [2], 10 µM (≈ 15.4 µg/mL); in [11], 20 µM (≈ 30.9 µg/mL); in experiment [12], not below 40 µM.

As to `CC[C@H](C)[C@H](NC(=O)[C@H](CCCN=C(N)N)NC(=O)[C@H](CCC(N)=O)NC(=O)[C@H](CCCCN)NC(=O)[C@@H](NC(=O)[C@H](CCCN=C(N)N)NC(=O)[C@@H](N)CCCCN)[C@@H](C)CC)C(=O)N[C@@H](CCCCN)C(=O)N[C@@H](CC(=O)O)C(=O)N[C@@H](Cc1ccccc1)C(=O)N[C@@H](CC(C)C)C(=O)N[C@@H](CCCN=C(N)N)C(=O)O` [KRIKQRIKDFLR], the MIC is 2.5 µM (≈ 4 µg/mL) in experiment [9], 5 µM (≈ 8 µg/mL) in experiment [2], 20 µM (≈ 32 µg/mL) in experiment [11] and 20 µM (≈ 32 µg/mL) in [12].

Consider `CC(C)C[C@@H]1NC(=O)CNC(=O)[C@H]([C@@H](C)O)NC(=O)[C@@H]2CCCN2C(=O)[C@H](CC(C)C)NC(=O)CNC(=O)[C@H](CC(N)=O)NC(=O)[C@H](CC(N)=O)NC(=O)[C@H](Cc2ccc(O)cc2)NC(=O)[C@H](C(C)C)NC(=O)[C@H](CCCN=C(N)N)NC(=O)[C@@H](NC(=O)[C@H](CCCN=C(N)N)NC(=O)[C@H](Cc2cnc[nH]2)NC(=O)[C@H](CCCCN)NC(=O)[C@H](CCCCN)NC(=O)[C@H](CCCN=C(N)N)NC(=O)[C@@H](N)CCCCN)CSSC[C@@H](C(N)=O)NC(=O)[C@H](Cc2c[nH]c3ccccc23)NC(=O)[C@H](CCCN=C(N)N)NC(=O)[C@H](Cc2ccc(O)cc2)NC1=O` [KRKKHRCRVYNNGLPTGLYRWC], for which the MIC in experiment [5] was determined as 1.1 µM (≈ 3.02 µg/mL).

For `CC[C@H](C)[C@H](NC(=O)[C@H](CO)NC(=O)[C@H](C)NC(=O)[C@@H](NC(=O)[C@H](CCCCN)NC(=O)[C@H](CCCCN)NC(=O)[C@H](Cc1c[nH]c2ccccc12)NC(=O)[C@@H](N)CC(N)=O)[C@@H](C)CC)C(=O)NCC(=O)N[C@@H](CCCCN)C(=O)N[C@@H](CCC(=O)O)C(=O)N[C@H](C(=O)N[C@@H](CC(C)C)C(=O)N[C@@H](CCCCN)C(=O)N[C@@H](C)C(=O)N[C@@H](CC(C)C)C(N)=O)C(C)C` [NWKKIASIGKEVLKAL], the MIC in [8] was not below 46 µM; in [10], 21 µM (≈ 37.7 µg/mL).

As for `CC[C@H](C)[C@H](NC(=O)[C@H](C)NC(=O)[C@H](CCCN=C(N)N)NC(=O)[C@H](Cc1ccc(O)cc1)NC(=O)[C@H](CC(C)C)NC(=O)[C@H](CC(N)=O)NC(=O)[C@H](Cc1ccc(O)cc1)NC(=O)CNC(=O)[C@H](C)NC(=O)[C@@H](NC(=O)[C@@H](NC(=O)[C@@H](NC(=O)[C@H](CCCN=C(N)N)NC(=O)[C@@H](NC(=O)[C@@H](NC(=O)[C@@H](NC(=O)[C@@H]1CCCN1C(=O)[C@H](Cc1c[nH]c2ccccc12)NC(=O)[C@H](Cc1ccccc1)NC(=O)[C@H](CCCN=C(N)N)NC(=O)[C@H](CCCCN)NC(=O)[C@@H](NC(=O)[C@@H](N)CCCN=C(N)N)[C@@H](C)CC)C(C)C)C(C)C)[C@@H](C)CC)[C@@H](C)O)C(C)C)C(C)C)C(=O)N[C@@H](CCCCN)C(=O)N[C@@H](CCCCN)C(=O)O` [RIKRFWPVVIRTVVAGYNLYRAIKK], the MIC in [1] was determined as 3.08 µM (≈ 9.38 µg/mL); in [7], 0.769 µM (≈ 2.34 µg/mL); in experiment [9], 1.15 µM (≈ 3.52 µg/mL); in [8], 1.54 µM (≈ 4.69 µg/mL).

Turning to `CC[C@H](C)[C@H](NC(=O)[C@@H](NC(=O)[C@@H](NC(=O)[C@@H]1CCCN1C(=O)[C@H](Cc1c[nH]c2ccccc12)NC(=O)[C@H](Cc1ccccc1)NC(=O)[C@H](CCCN=C(N)N)NC(=O)[C@H](CCCCN)NC(=O)[C@@H](NC(=O)[C@@H](N)CCCN=C(N)N)[C@@H](C)CC)C(C)C)C(C)C)C(=O)N[C@@H](CCCN=C(N)N)C(=O)N[C@H](C(=O)N[C@H](C(=O)N[C@H](C(=O)N[C@@H](C)C(=O)NCC(=O)N[C@@H](Cc1ccc(O)cc1)C(=O)N[C@@H](CC(N)=O)C(=O)N[C@@H](CC(C)C)C(=O)N[C@@H](Cc1ccc(O)cc1)C(=O)O)C(C)C)C(C)C)[C@@H](C)O` [RIKRFWPVVIRTVVAGYNLY], the MIC is not below 45.9 µM in [7] and 61.2 µM (≈ 150 µg/mL) in [9].

As for `CC(C)C[C@H](NC(=O)[C@H](C)NC(=O)[C@H](Cc1c[nH]c2ccccc12)NC(=O)CNC(=O)[C@H](CCCN=C(N)N)NC(=O)[C@@H](N)CCCN=C(N)N)C(=O)N[C@@H](CCCN=C(N)N)C(=O)N[C@@H](CC(C)C)C(=O)N[C@H](C(=O)N[C@@H](CC(C)C)C(=O)N[C@@H](C)C(=O)N[C@@H](Cc1ccc(O)cc1)C(N)=O)C(C)C` [RRGWALRLVLAY], in experiment [3], the MIC was 26 µM and 30 µM.
